Measured values published in US9963480B2, “Nucleoside phosphoramidate compound and use thereof” (priority 2013, dated 2018).

Legend:
Assay type in all cases: cell-based
[1] = test system: J399EM (HCV genotype 2a) virus; assay: Antiviral activity assay in the cell-culture-derived infectious HCV (HCVcc) system
Experimental: The compound according to the above example 1 was used in this experiment. The compound was formulated into a 10 mM mother liquid with DMSO, diluted to 500 nM by DMEM complete culture medium containing 0.5% of DMSO, followed by 4-fold dilution successively, and six concentrations were obtained. The positive control was diluted to 10 μM by DMEM complete culture medium containing 0.5% of DMSO, followed by 4-fold successively, and six concentrations were obtained.
(§1) Huh 7.5.1 cells, provided by Shanghai Institute of Materia Medica, Chinese Academy of Sciences.
J399EM (HCV genotype 2a) virus, i.e. a full length HCV mutant strain transfected with EGFP (enhanced green fluorescent protein) was used, which had the same infection capacity as the wild type JFH-1. The NS5A-EGFP fusion protein fluorescence was observed directly in infected cells by inserting EGFP coding sequence in the NS5A region. J399EM was provided by Shanghai Institute of Materia Medica, Chinese Academy of Sciences.
(§2) • 1) Huh 7.5.1 cells preparation: collecting the Huh7.5.1 cells in logarithmic phase, resuspending in DMEM complete culture medium, seeding into 96-well plates (7×10^3 cells/well), and incubating in a 37° C., 5% CO2 incubator for 24 h; • 2) virus infection: resuspending J399EM viruses in DMEM complete culture medium, adding the virus supernatant (MOI≈0.1) to the above 96-well plates, and washing with PBS after 8 hours of infection; • 3) drug treatment: adding various concentrations of the compounds to the Huh7.5.1 cells infected by J399EM viruses, with each concentration in duplicate; setting the control group with zero percent effect (ZPE) and the control group with hundred percent effect (HPE); replacing the compound with the DMEM complete culture medium containing 0.5% DMSO in ZPE group, and using the cells not infected with viruses in HPE group. • 4) cells incubation: incubating the 96-well plates in a 37° C., 5% CO2 incubator for 72 hr; • 5) anti-HCV activity detection: reading the relative fluorescence units (RFU) of each well by EnVision® Multi label Plate readers after incubation, and calculating the anti-HCV activity of the compounds using the obtained data according to the following formula: Inhibition %=(RFUZPE−RFUCPD)/(RFUZPE−RFUHPE)×100 • wherein RFUZPE represents the relative fluorescence units of the control group with zero percent effect and RFUCPD represents the relative fluorescence units of the corresponding compound group, and RFUHPE represents the relative fluorescence units of the control group with hundred percent effect. • 6) Cell viability detection: adding MTT solution to each well, incubating in a 37° C., 5% CO2 incubator for 4 hr, followed by addition of MTT dissolving solution, reading optical density (OD) of each well at 570 nm by the Multi label Plate readers after 6 hr, calculating the cytotoxicity of the compounds using the obtained data according to the following formula: Viability %=ODCPD/ODZPE×100 • wherein ODZPE represents the optical density of the control group with zero percent effect, and ODCPD represents the optical density of the corresponding compound; • 7) Data processing: processing the Inhibition %, Viability % by GraphPad Prism Software respectively, and obtaining the half maximal effective concentration (EC50) values and half maximal cytotoxic concentration (CC50) values of the compounds against the HVCcc GT2a viruses.

[2] = Cell viability detection (MTT) in the HCVcc system; settings: human, Huh 7.5.1 cells infected with J399EM virus (HCVcc); Huh 7.5.1 cells, MTT, 72 hr
Experimental: as §1, §2

Huh 7.5.1 cells = assay: Cell viability detection (MTT) in the HCVcc system; settings: HCVcc system
Experimental: as §1, §2

CC(C)OC(=O)[C@H](C)NP(=O)(OC[C@H]1O[C@@H](n2ccc(=O)[nH]c2=O)[C@](C)(F)[C@@H]1O)Oc1ccc(-c2ccccc2)cc1 (stereo partly drawn) [Example 1, (2S)-2-((([1,1′-biphenyl]-4-yloxy)(((2R,3R,4R,5R)-5-(2,4-dioxo-3,4-dihydropyrimidin-1(2H)-yl)-4-fluoro-3-hydroxy-4-methyltetrahydrofuran-2-yl)methoxy)phosphoryl)amino)propanoic Acid Isopropyl Ester]
antiviral activity compared with the positive control ([1]; HCVcc system): excellent
EC50 ([1]; Hepatitis C virus, Huh-7.5.1, 72 h): 39 nM
CC50 at 72 h [2]: > 10000 nM
cell toxicity compared with the positive control (Huh 7.5.1 cells): less
